Retention_time data for three compounds are collected here from ChEMBL document CHEMBL4725230, “Syntheses and pharmacokinetic evaluations of four metabolites of 2-(4-(2-((1H-benzo[d]imidazol-2-yl)thio)ethyl)piperazin-1-yl)-N-(6-methyl-2,4-bis-(methylthio)pyridin-3-yl)acetamide hydrochloride [K-604], an acyl-CoA:cholesterol O-acyltransferase-1 inhibitor” (Bioorg Med Chem, 2020).

This data set can be described thus: Retention time of the compound in human liver microsomes after 5 mins in presence of NADPH by LC-MS/MS analysis. Format: ADME, Microsome. (Liver microsomes are vesicles of endoplasmic reticulum, rich in cytochrome P450 enzymes.)

Molecules are shown by their SMILES.

Turning to `CSc1cc(C)nc([S+](C)[O-])c1NC(=O)CN1CCN(CCSc2nc3ccccc3[nH]2)CC1` (stereo not drawn), the Retention_time is 2.73 min.
Turning to `CSc1cc(C)nc(SC)c1NC(=O)CN1CCN(CCSc2nc3cc(O)ccc3[nH]2)CC1`, the Retention_time stood at 3.21 min.
As for `CSc1cc(C)nc(SC)c1NC(=O)CN1CCN(CC[S+]([O-])c2nc3ccccc3[nH]2)CC1` (stereo not drawn), the Retention_time stood at 5.78 min.
